The values that follow come from patent US5506102A (priority 1993, dated 1996).

The subject of test [1] is glucocorticoid receptor (GR). Briefly: GR transcriptional activity on MMTV-LUC, CV-1 cells, GR co-expressed with PR-B. Type of test: cell-based. As to conditions: progesterone and dexamethasone, FIG. 5B. On the procedure:
Cells were seeded in 12-well, 96-well or 10 cm tissue culture plates. […] 20 μg of DNA/ml of transfection buffer were used in each transfection reaction. In this mix, the concentration of the luciferase plasmids and that of the internal control plasmid pCH110 (Pharmacia, Inc.), which contains the gene for the β-galactosidase enzyme, remained constant ([…] of each plasmid DNA), while the receptor plasmid concentration varied as indicated for each experiment. Different amounts of receptor parental plasmid, pSV2-neo (Dr. Bert O'Malley, Baylor College of Medicine, Houston, Tex.) was included to keep constant the total amount of the SV40 enhancer vectors. pGEM4 plasmid DNA (Promega Biotech, Madison, Wis.) was added to balance the total DNA concentration to 20 g/reaction. For the 96-well plate experiments, transfections were performed on a Biomek 1000 Automated Laboratory Workstation (Beckman Instruments, Fullerton, Calif.).
Cells were seeded 24 hours prior to transfection in the fiat-bottom tissue culture plates ([…]) in phenol red-free DMEM containing 10% FCS. […] Using calcium phosphate co-precipitation, DNA solution was added dropwise with vortexing into an equal volume of 2X HBS pH 6.9 (280 mM NaCl. 50 mM HEPES, 1.5 mM Na2 HPO4) and precipitates were allowed to form for 20 minutes. […]

For a further test, the target named is T1, human androgen receptor (Homo sapiens, UniProt P10275).
T1 sequence (P10275 1-920): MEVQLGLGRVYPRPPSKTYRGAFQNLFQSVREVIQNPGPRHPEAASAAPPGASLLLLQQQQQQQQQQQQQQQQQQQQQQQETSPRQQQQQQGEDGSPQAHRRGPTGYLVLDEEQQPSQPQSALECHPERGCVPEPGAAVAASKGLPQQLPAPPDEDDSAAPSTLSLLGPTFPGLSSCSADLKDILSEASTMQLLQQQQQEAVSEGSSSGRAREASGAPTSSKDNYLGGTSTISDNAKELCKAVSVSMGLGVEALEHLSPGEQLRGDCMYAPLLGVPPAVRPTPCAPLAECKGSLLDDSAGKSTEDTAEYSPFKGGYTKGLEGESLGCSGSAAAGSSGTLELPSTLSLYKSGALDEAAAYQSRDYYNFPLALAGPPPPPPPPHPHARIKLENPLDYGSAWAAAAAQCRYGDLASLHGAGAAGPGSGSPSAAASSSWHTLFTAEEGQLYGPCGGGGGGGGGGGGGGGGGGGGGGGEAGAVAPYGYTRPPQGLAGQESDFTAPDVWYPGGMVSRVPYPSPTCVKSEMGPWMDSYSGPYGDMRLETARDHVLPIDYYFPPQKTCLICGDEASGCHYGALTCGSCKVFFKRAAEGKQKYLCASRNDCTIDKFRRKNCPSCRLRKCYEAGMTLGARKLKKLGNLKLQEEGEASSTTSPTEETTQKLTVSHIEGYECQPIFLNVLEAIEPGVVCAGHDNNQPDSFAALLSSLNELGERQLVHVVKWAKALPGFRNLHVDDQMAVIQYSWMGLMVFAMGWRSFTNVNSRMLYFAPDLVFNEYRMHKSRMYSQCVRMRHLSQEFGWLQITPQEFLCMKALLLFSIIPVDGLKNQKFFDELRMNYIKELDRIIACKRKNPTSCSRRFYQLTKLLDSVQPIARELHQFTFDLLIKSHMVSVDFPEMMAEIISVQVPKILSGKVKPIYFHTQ
Briefly: AR transcriptional activity on MMTV-LUC, CV-1 cells, AR co-expressed with PR-A. As to conditions: AR plus PR-A, FIG. 10B. Format: cell-based. Here is the method: FIGS. 10A-10B are a series of graphs showing CV-1 cells that were transiently transfected with an expression vector for the human androgen receptor (pRShAR) alone, or in combination with phPR-A together with 5 µg/ml of the MMTV-LUC reporter and 5 µg/ml of pCH110 as an internal control. […] The relative luciferase activity is calculated by dividing the normalized luciferase value at a given point by that obtained in the absence of transfected receptor or ligand. […] The data are presented as percent (%) activation, where 100% represents the maximal induction achieved by human androgen receptor at 10^ -8 M DHT. The experimental data represents mean values +/- the average deviation from the mean of quadruplicate estimations;
Cells were seeded in 12-well, 96-well or 10 cm tissue culture plates. […] 20 μg of DNA/ml of transfection buffer were used in each transfection reaction. In this mix, the concentration of the luciferase plasmids and that of the internal control plasmid pCH110 (Pharmacia, Inc.), which contains the gene for the β-galactosidase enzyme, remained constant ([…] of each plasmid DNA), while the receptor plasmid concentration varied as indicated for each experiment. […]

Consider `CC(=O)[C@H]1CC[C@H]2[C@@H]3CCC4=CC(=O)CC[C@]4(C)[C@H]3CC[C@]12C` [progesterone], for which, in test [1], the “effect of PR-B co-expression on GR function” value is listed as “minimal effects on GR function”.

Consider `CC#C[C@]1(O)CC[C@H]2[C@@H]3CCC4=CC(=O)CCC4=C3[C@@H](c3ccc(C(C)=O)cc3)C[C@@]21C` [ZK112993], for which, on human androgen receptor, the “effect on DHT-induced AR activity in the presence of PR-A” value is “increased by the introduction of PR-A”.
